Reference: paper PMC10700139 (Nature, 2023)
Where “and” joins values, the source holds several entries; their conditions need not be identical. Equal entries are not always repeated.

Key:
[1] = Stability of isolated 9 in deuterated solvents (1H NMR, LC-MS); assay type: physicochemical; settings: resuspended in CDCl3 or CD3OD, 1H NMR over time
Experimental: Also, on drying of our sample from CDCl3, we noted a colour change from yellow/brown to red. Loss of our compound was confirmed through LC–MS analysis. However, we observed that during the course of purification, a compound pertaining to an oxidation of 9 ([…]; equal to 9 + oxygen) accumulated to high concentrations. […] As such, we purified this compound using the same strategy outlined above (yield of about 3 mg) and determined a putative structure (proposed 9′) through NMR analysis. For 9′, deuterated ACN (CD3CN) was used as a solvent and spectra were collected on a Varian Inova 600 MHz NMR spectrometer at room temperature (Supplementary Figs. 12–18).

[2] = target: T1, PtCAL-1a/PtCAL-2a (Phlegmariurus tetrastichus, UniProt P0DXL1+P0DXL3); assay: In vitro reactions with apoplastic PtCAL-1a/PtCAL-2a (formation of 9, decarboxylation of 3, Zn chelator); assay type: biochemical
T1 construct: N-terminal signal peptide[58], which would be cleaved during processing and trafficking of these proteins; made in house; host or cells: Nicotiana benthamiana leaves (Agrobacterium transient co-expression, pEAQ-HT), concentrated apoplast extract
T1 sequence (P0DXL1 22-280): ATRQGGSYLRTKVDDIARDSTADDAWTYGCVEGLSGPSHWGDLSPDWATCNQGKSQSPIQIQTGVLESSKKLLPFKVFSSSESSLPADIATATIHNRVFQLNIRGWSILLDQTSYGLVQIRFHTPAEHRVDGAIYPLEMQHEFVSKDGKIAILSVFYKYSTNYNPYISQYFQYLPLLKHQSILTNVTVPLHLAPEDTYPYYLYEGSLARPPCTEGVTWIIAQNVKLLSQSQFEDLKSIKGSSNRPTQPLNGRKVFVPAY
T1 sequence (P0DXL3 24-284): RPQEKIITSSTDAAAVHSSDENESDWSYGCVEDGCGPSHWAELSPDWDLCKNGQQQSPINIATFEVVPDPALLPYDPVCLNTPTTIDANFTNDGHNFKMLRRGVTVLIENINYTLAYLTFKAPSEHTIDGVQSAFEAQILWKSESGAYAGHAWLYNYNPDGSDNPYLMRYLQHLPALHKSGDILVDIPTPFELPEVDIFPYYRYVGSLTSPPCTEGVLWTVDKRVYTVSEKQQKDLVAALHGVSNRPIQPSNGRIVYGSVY
From the text: The three CAL proteins identified in this study have predicted N-terminal signal peptides, which were identified using the TargetP-2.0 server (https://services.healthtech.dtu.dk/service.php?TargetP-2.0)[58]. […] To assess this possibility, CAL genes with or without C-terminal 6xHis tags were transiently expressed in N. benthamiana, as described above. Each CAL gene was expressed individually; also, PtCAL-1a and PtCAL-2a were transiently co-expressed in the same leaf because we had found them to cofunction in Lycopodium alkaloid biosynthesis. At 4 days after Agrobacterium infiltration, apoplast protein extracts were isolated using the infiltration–centrifugation method, much as previously described. Two leaves per reaction were excised from the plant and submerged in ice-cold apoplast extraction buffer (100 mM MES, 300 mM NaCl, pH 5.5) in an open-capped 50 ml Falcon tube and these tubes were placed in a plastic vacuum chamber attached to a Welch Model 2025 vacuum pump. The chamber was brought down to full vacuum and after 2 min at this pressure, the vacuum was slowly released to allow for buffer to infiltrate the leaf apoplastic space. Buffer-infiltrated leaves were carefully removed from the Falcon tubes, blotted dry with paper towels and were then rolled into Parafilm and placed in a plungerless 5 ml plastic syringe. The syringe was placed in a 15 ml Falcon tube and this was then centrifuged at 1,000g and 4 °C for 10 min to collect apoplast extract. The resulting extract was centrifuged at 10,000g and 4 °C for 15 min to pellet any larger cellular debris and the supernatant was concentrated using an Amicon Ultra-4 Centrifugal Filter Unit (10 kDA MWCO, MilliporeSigma UFC501024). Protein concentrations were measured using the BIO-RAD Protein Assay or Bradford assay (Abcam 119216) and adjusted with apoplast extraction buffer to a final concentration between 0.5 and 1.5 mg ml^−1. Aliquots of the extracts were snap frozen in liquid nitrogen and stored at −80 °C.
Reactions with CAL-enriched apoplast were routinely performed in low-pH potassium phosphate buffer (50 mM potassium phosphate, 100 mM NaCl, pH 5.9) at a volume of 20 µl. For PtCAL-1a/PtCAL-2a, these reactions contained approximately 1.4 µg of apoplast protein for each CAL (final concentration of 0.07 µg µl^−1). Control reactions used apoplast from leaves expressing only one CAL or with apoplast generated from GFP-expression N. benthamiana leaves. The requisite substrates for this reaction were generated through the activities of in vitro PtPIKS-1 and PtCYP782C1 enzyme reactions. […]. To generate 3 and 4 as potential substrates, 1 µg of previously purified PtPIKS-1 enzyme[23] and 150 µM 1 and 300 µM malonyl-CoA were added directly to the CAL reaction mixtures. After thorough mixing, reactions were incubated at room temperature. An alternative route for producing 3 and 4 independently of thioester intermediates was achieved by mixing stocks of 1 (10 mM in water) and 2 (10 mM in water; always prepared fresh to minimize compound decomposition) in equal proportion, followed by incubation at room temp for 1–2 h, as these two substrates can non-enzymatically condense to yield 3 (which can spontaneously decarboxylate to produce 4). A 2 µl aliquot of this mixture was then added as a component of the PtCAL-1a/PtCAL-2a enzyme reaction (20 µl total reaction volume) in addition to the PtCYP782C1 microsomal reaction mixture. After predesignated incubation times, reactions were quenched by diluting tenfold into ACN with 0.1% formic acid.
To evaluate the potential decarboxylation of β-keto acid substrates by PtCAL-1/PtCAL-2 and PtCAL-3, only 3 or 2, respectively, were added as substrate. PtCAL-1/PtCAL-2 reactions were quenched by diluting aliquots tenfold into ACN with 0.1% formic acid and were subsequently analysed through HILIC LC–MS. PtCAL-3 reactions were quenched by mixing aliquots with an equal volume of water with 0.2% formic acid and were then analysed through C18 LC–MS. […]

SMILES: CC1CC2=NCCCC2=C(CC2CCCCN2)C1 (centres unmarked) [compound 9]
- stability of isolated compound [1]: relatively unstable
- ion abundance of 9 (m/z 164.1434) over time ([2]; PtCAL-1a/PtCAL-2a +3, +8, +PDCA, +Zn, 0.5 hrs (ED 4i)): 127782 and 135642 and 127803
- ion abundance of 9 (m/z 164.1434) over time ([2]; PtCAL-1a/PtCAL-2a +3, +8, +PDCA, +Zn, 2 hrs (ED 4i)): 473171 and 458012 and 448492
- ion abundance of 9 (m/z 164.1434) over time ([2]; PtCAL-1a/PtCAL-2a +3, +8, +PDCA, +Zn, 6 hrs (ED 4i)): 1066834 and 1174532 and 1104641
- ion abundance of 9 (m/z 164.1434) over time ([2]; PtCAL-1a/PtCAL-2a +3, +8, +PDCA, +Zn, 24 hrs (ED 4i)): 1783309 and 1828274 and 1979732
- ion abundance of 9 (m/z 164.1434) over time ([2]; PtCAL-1a/PtCAL-2a +3, +8, +PDCA, 0.5 hrs (ED 4i)): 126896 and 128709 and 118410
- ion abundance of 9 (m/z 164.1434) over time ([2]; PtCAL-1a/PtCAL-2a +3, +8, +PDCA, 2 hrs (ED 4i)): 460080 and 448051 and 514634
- ion abundance of 9 (m/z 164.1434) over time ([2]; PtCAL-1a/PtCAL-2a +3, +8, +PDCA, 6 hrs (ED 4i)): 1133647 and 1079904 and 1109219
- ion abundance of 9 (m/z 164.1434) over time ([2]; PtCAL-1a/PtCAL-2a +3, +8, +PDCA, 24 hrs (ED 4i)): 1692906 and 1937168 and 1863327
- ion abundance of 9 (m/z 164.1434) over time ([2]; PtCAL-1a/PtCAL-2a +3, +8, 0.17 hrs): 5042 and 4513 and 5355
- ion abundance of 9 (m/z 164.1434) over time ([2]; PtCAL-1a/PtCAL-2a +3, +8, 0.5 hrs (ED 4i)): 123276 and 137673 and 112913
- ion abundance of 9 (m/z 164.1434) over time ([2]; PtCAL-1a/PtCAL-2a +3, +8, 2 hrs (ED 4i)): 446630 and 485400 and 412047
- ion abundance of 9 (m/z 164.1434) over time ([2]; PtCAL-1a/PtCAL-2a +3, +8, 6 hrs (ED 4i)): 1143938 and 1142219 and 1013243
- ion abundance of 9 (m/z 164.1434) over time ([2]; PtCAL-1a/PtCAL-2a +3, +8, 8.00 hrs): 777915 and 631565 and 1080330
- ion abundance of 9 (m/z 164.1434) over time ([2]; PtCAL-1a/PtCAL-2a +3, +8, 20.00 hrs): 2280194 and 1799167 and 2350932
- ion abundance of 9 (m/z 164.1434) over time ([2]; PtCAL-1a/PtCAL-2a +3, +8, 24.00 hrs): 2573277 and 1958546 and 2242168
- ion abundance of 9 (m/z 164.1434) over time ([2]; PtCAL-1a/PtCAL-2a +3, +8, 24 hrs (ED 4i)): 1814580 and 1825623 and 1787378
- ion abundance of 9 (m/z 164.1434) over time ([2]; PtCAL-1a/PtCAL-2a +3, +8, +PtCAL-3, 0.17 hrs): 8935 and 8139 and 7454
- ion abundance of 9 (m/z 164.1434) over time ([2]; PtCAL-1a/PtCAL-2a +3, +8, +PtCAL-3, 0.50 hrs): 15312 and 11348 and 14678
- ion abundance of 9 (m/z 164.1434) over time ([2]; PtCAL-1a/PtCAL-2a +3, +8, +PtCAL-3, 2.00 hrs): 132103 and 73247 and 110763
- ion abundance of 9 (m/z 164.1434) over time ([2]; PtCAL-1a/PtCAL-2a +3, +8, +PtCAL-3, 4.00 hrs): 477805 and 480278 and 470081
- ion abundance of 9 (m/z 164.1434) over time ([2]; PtCAL-1a/PtCAL-2a +3, +8, +PtCAL-3, 8.00 hrs): 1471863 and 934058 and 1569447
- ion abundance of 9 (m/z 164.1434) over time ([2]; PtCAL-1a/PtCAL-2a +3, +8, +PtCAL-3, 24.00 hrs): 2382612 and 1957618 and 2845113
